PMC10763179 (Open access Macedonian journal of medical sciences, 2023)

Columns and labels:
[1] = tested on: larvae of marine crustaceans Artemia salina (Leach); test: Brine shrimp toxicity bioassay; format: in vivo; conditions: 24 h of exposure
[2] = tested on: NCI60 human tumor cell lines; test: NCI60 screen; format: cell-based
HL-60(TB) = test: NCI60 screen; format: cell-based; conditions: Homo sapiens, HL-60, read-out: inhibition of cell growth
COLO 205 = test: NCI60 screen; format: cell-based; conditions: Homo sapiens, COLO 205, read-out: inhibition of cell growth
UACC-257 = test: NCI60 screen; format: cell-based; conditions: Homo sapiens, UACC-257, read-out: inhibition of cell growth
[3] = Immunosuppressive activity
SR = test: NCI60 screen; format: cell-based; conditions: Homo sapiens, read-out: inhibition of cell growth
HT29 = test: NCI60 screen; format: cell-based; conditions: Homo sapiens, HT-29, read-out: inhibition of cell growth
DU-145 = test: NCI60 screen; format: cell-based; conditions: Homo sapiens, DU-145, read-out: inhibition of cell growth
HCT-15 = test: NCI60 screen; format: cell-based; conditions: Homo sapiens, HCT-15, read-out: inhibition of cell growth
UACC-62 = test: NCI60 screen; format: cell-based; conditions: Homo sapiens, UACC-62, read-out: inhibition of cell growth
OVCAR-3 = test: NCI60 screen; format: cell-based; conditions: Homo sapiens, OVCAR-3, read-out: inhibition of cell growth
MCF7 = test: NCI60 screen; format: cell-based; conditions: Homo sapiens, MCF7, read-out: inhibition of cell growth
CAKI-1 = test: NCI60 screen; format: cell-based; conditions: Homo sapiens, CAKI-1, read-out: inhibition of cell growth
RXF 393 = test: NCI60 screen; format: cell-based; conditions: Homo sapiens, RXF 393, read-out: inhibition of cell growth
TK-10 = test: NCI60 screen; format: cell-based; conditions: Homo sapiens, TK-10, read-out: inhibition of cell growth
SW-620 = test: NCI60 screen; format: cell-based; conditions: Homo sapiens, SW-620, read-out: inhibition of cell growth
K-562 = test: NCI60 screen; format: cell-based; conditions: Homo sapiens, K562, read-out: inhibition of cell growth
HCT-116 = test: NCI60 screen; format: cell-based; conditions: Homo sapiens, HCT-116, read-out: inhibition of cell growth
T-47D = test: NCI60 screen; format: cell-based; conditions: Homo sapiens, T47D, read-out: inhibition of cell growth
BT-549 = test: NCI60 screen; format: cell-based; conditions: Homo sapiens, BT-549, read-out: inhibition of cell growth
MDA-MB-435 = test: NCI60 screen; format: cell-based; conditions: Homo sapiens, MDA-MB-435, read-out: inhibition of cell growth

## C[S+](C)[O-] [dimethyl sulfoxide]
[1]
  LD500: 930.27 mg/mL

## CC1=CCC23OC2(C)CCC2C(CN(C)C)C(=O)OC2C13.Cl (stereo not drawn) [13-dimethylamino-1,10β-epoxy-5,7α,6, 11 β(H)-guai-3,4-ene-6,12-olide hydrochloride, reference compound]
[1]
  LD500: 20.6 mg/mL

## hydroxyarglabin acetate [hydroxyarglabin acetate 12]
[1]
  IC50 against the larvae of Artemia salina: 77.8 µg/mL
  LD500: 77.8 mg/mL

## C=C1C(=O)O[C@@H]2[C@H]3C(C)=CC[C@@]34O[C@@]4(C)CC[C@@H]12 [Arglabin 6, arglabin]
[2]; Homo sapiens, read-out: average value of cell growth inhibition for all 60 NCI60 human tumor cell lines
  inhibition at 8.3 µM: 45.9%
[2]; mean over NCI60 panel, single dose 8.3 μM
  Mean tumor cell growth, %: 54.15%
HL-60(TB)
  inhibition at 8.3 µM: 97.4%
COLO 205
  inhibition at 8.3 µM: 57.6%
UACC-257
  inhibition at 8.3 µM: 55.9%
[3]
  immunosuppressive activity: does not exhibit immunosuppressive activity
SR
  inhibition at 8.3 µM: 97.8%
HT29
  inhibition at 8.3 µM: 59.3%
DU-145
  inhibition at 8.3 µM: 88.5%
Effect on hematopoiesis
  depressant effect on hematopoiesis: does not have a depressant effect on hematopoiesis
HCT-15
  inhibition at 8.3 µM: 75.4%
UACC-62
  inhibition at 8.3 µM: 74.2%
OVCAR-3
  inhibition at 8.3 µM: 69.6%
MCF7
  inhibition at 8.3 µM: 71.1%
CAKI-1
  inhibition at 8.3 µM: 73.4%
RXF 393
  inhibition at 8.3 µM: 67.3%
TK-10
  inhibition at 8.3 µM: 94.3%
SW-620
  inhibition at 8.3 µM: 70.9%
K-562
  inhibition at 8.3 µM: 73.8%
HCT-116
  inhibition at 8.3 µM: 82.6%
T-47D
  inhibition at 8.3 µM: 73.5%
BT-549
  inhibition at 8.3 µM: 72.1%
MDA-MB-435
  inhibition at 8.3 µM: 65.8%
